Measurements taken from patent EP0306971A2, “Use of milk fat globules as carriers for drugs and as microflotation devices in immunoassays and cell/molecular fractionation” (Bankert, Richard B., priority 1987, dated 1989).

Assay: incorporation of adriamycin into MFG, by difference, spectrofluorometric determination
Format: physicochemical
Details: 0.9 ml packed MFG with 0.1 ml adriamycin 1 mg/ml in PBS, overnight at room temperature
Method: The milk fat globules to be loaded with drug are obtained from raw bovine milk by centrifugation at 1,500 x g for 10 min at room temperature followed by removal of the underlying (sub-natant) aqueous material. The MFG is washed three times by the addition of phosphate buffered saline, pH 7.4 (PBS) to the original volume followed by centrifugation at 1500 x g for 10 min and removal of the sub-natant fluid. Adriamycin is rapidly and stably loaded into the MFG very efficiently by incubating 0.9 ml packed MFG with 0.1 ml adriamycin, dissolved in PBS to a concentration of 1 mg/ml, overnight at room temperature. The resultant MFG is then transferred to a 10 ml syringe fitted with a stopcock, brought to 10 ml with PBS and centrifuged at 1500 x g for 10 min. The sub-natant fluid is removed by opening the stopcock and the milk fat globule layer is washed three times by gentle suspension in PBS followed by centrifugation. […] The presence of adriamycin is detected in the MFG by its fluorescence emission at 590 nm using fluorescence microscopy. Alternatively, the amount of incorporated adriamycin can be calculated by difference, after determination of the amount of adriamycin remaining in the first sub-natant fraction by spectrofluorometric determination using an excitation wavelength of 470 nm and an emission wavelength of 590 nm. […]

In the case of COc1cccc2c1C(=O)c1c(O)c3c(c(O)c1C2=O)C[C@@](O)(C(=O)CO)C[C@@H]3O[C@H]1C[C@H](N)[C@H](O)[C@H](C)O1 [adriamycin], the “added drug incorporated into the MFG” value was “up to 80%”.
